# Source: PubChem BioAssay (NCI)
#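 96-well plates; 48 h exposure; 5 concentrations. Endpoints by linear interpolation between flanking doses. Not reached: highest tested concentration assigned. GI50 marks 50% less growth. TGI: total growth inhibition.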
# Tests used:
# Assay in all cases: NCI-60 cell line screen, 48 h
# MALME-3M melanoma = system: MALME-3M melanoma
# RXF 393 renal = system: RXF 393 renal
# SK-MEL-5 melanoma = system: SK-MEL-5 melanoma
# COLO 205 colon = system: COLO 205 colon
# HOP-92 NSCLC = system: HOP-92 NSCLC
# MOLT-4 leukemia = system: MOLT-4 leukemia
# SF-539 CNS = system: SF-539 CNS
# MDA-MB-435 = system: MDA-MB-435
# NCI/ADR-RES ovarian = system: NCI/ADR-RES ovarian
# NCI-H460 lung = system: NCI-H460 lung
# HCC-2998 colon = system: HCC-2998 colon
# RPMI-8226 leukemia = system: RPMI-8226 leukemia
# HS 578T breast = system: HS 578T breast
# TK-10 renal = system: TK-10 renal
# IGROV1 ovarian = system: IGROV1 ovarian
# UACC-257 melanoma = system: UACC-257 melanoma
# SNB-75 CNS = system: SNB-75 CNS
# NCI-H226 lung = system: NCI-H226 lung
# BT-549 breast = system: BT-549 breast
# SF-295 CNS = system: SF-295 CNS
# SNB-19 CNS = system: SNB-19 CNS
# OVCAR-3 ovarian = system: OVCAR-3 ovarian
# M14 melanoma = system: M14 melanoma
# OVCAR-5 ovarian = system: OVCAR-5 ovarian
# PC-3 prostate = system: PC-3 prostate
# NCI-H522 lung = system: NCI-H522 lung
# CAKI-1 renal = system: CAKI-1 renal
# EKVX NSCLC = system: EKVX NSCLC
# A498 renal = system: A498 renal
# A549 NSCLC = system: A549 NSCLC
# OVCAR-8 ovarian = system: OVCAR-8 ovarian
# UACC-62 melanoma = system: UACC-62 melanoma
# T-47D breast = system: T-47D breast
# SK-OV-3 ovarian = system: SK-OV-3 ovarian
# SN12C renal = system: SN12C renal
# MDA-MB-468 breast = system: MDA-MB-468 breast
# SR leukemia = system: SR leukemia
# NCI-H23 lung = system: NCI-H23 lung
# CCRF-CEM leukemia = system: CCRF-CEM leukemia
# HCT-116 colon = system: HCT-116 colon
# HOP-62 NSCLC = system: HOP-62 NSCLC
# MCF7 breast = system: MCF7 breast
# HL-60(TB) leukemia = system: HL-60(TB) leukemia
# HT29 colon = system: HT29 colon
# ACHN renal = system: ACHN renal
# K-562 leukemia = system: K-562 leukemia
# SW-620 colon = system: SW-620 colon
# 786-0 renal = system: 786-0 renal
# SK-MEL-28 melanoma = system: SK-MEL-28 melanoma
# DU-145 prostate = system: DU-145 prostate
# MDA-MB-231 breast = system: MDA-MB-231 breast
# KM12 colon = system: KM12 colon
# LOX IMVI melanoma = system: LOX IMVI melanoma
# HCT-15 colon = system: HCT-15 colon
# OVCAR-4 ovarian = system: OVCAR-4 ovarian
# SF-268 CNS = system: SF-268 CNS
# SK-MEL-2 melanoma = system: SK-MEL-2 melanoma
# U251 CNS = system: U251 CNS
# UO-31 renal = system: UO-31 renal
structure (smiles),measurement,setting,value
CC(C)(C)c1ccc(NCc2cn(-c3ccc(C(=O)O)cc3)nc2-c2ccc(C#N)cc2)cc1,GI50,MALME-3M melanoma,11.3 µM
same,TGI,MALME-3M melanoma,28.3 µM
same,GI50,RXF 393 renal,6.94 µM
same,TGI,RXF 393 renal,21.4 µM
same,GI50,SK-MEL-5 melanoma,3.58 µM
same,TGI,SK-MEL-5 melanoma,13.5 µM
same,GI50,COLO 205 colon,3.18 µM
same,TGI,COLO 205 colon,11.8 µM
same,GI50,HOP-92 NSCLC,8.12 µM
same,TGI,HOP-92 NSCLC,23.3 µM
same,GI50,MOLT-4 leukemia,4.34 µM
same,TGI,MOLT-4 leukemia,> 100 µM
same,GI50,SF-539 CNS,5.96 µM
same,TGI,SF-539 CNS,19.7 µM
same,GI50,MDA-MB-435,6.31 µM
same,TGI,MDA-MB-435,32.7 µM
same,GI50,NCI/ADR-RES ovarian,5.81 µM
same,TGI,NCI/ADR-RES ovarian,23.4 µM
same,GI50,NCI-H460 lung,4.41 µM
same,TGI,NCI-H460 lung,17 µM
same,GI50,HCC-2998 colon,3.31 µM
same,TGI,HCC-2998 colon,11.7 µM
same,GI50,RPMI-8226 leukemia,3.91 µM
same,TGI,RPMI-8226 leukemia,25.2 µM
same,GI50,HS 578T breast,3.54 µM
same,TGI,HS 578T breast,27.2 µM
same,GI50,TK-10 renal,13.7 µM
same,TGI,TK-10 renal,31 µM
same,GI50,IGROV1 ovarian,10.7 µM
same,TGI,IGROV1 ovarian,25.6 µM
same,GI50,UACC-257 melanoma,8.15 µM
same,TGI,UACC-257 melanoma,42.8 µM
same,GI50,SNB-75 CNS,6.97 µM
same,TGI,SNB-75 CNS,21.3 µM
same,GI50,NCI-H226 lung,10.8 µM
same,TGI,NCI-H226 lung,35.6 µM
same,GI50,BT-549 breast,6.77 µM
same,TGI,BT-549 breast,22.4 µM
same,GI50,SF-295 CNS,5.35 µM
same,TGI,SF-295 CNS,20.7 µM
same,GI50,SNB-19 CNS,4.44 µM
same,TGI,SNB-19 CNS,16.8 µM
same,GI50,OVCAR-3 ovarian,6.86 µM
same,TGI,OVCAR-3 ovarian,21.9 µM
same,GI50,M14 melanoma,7.28 µM
same,TGI,M14 melanoma,25.9 µM
same,GI50,OVCAR-5 ovarian,14.2 µM
same,TGI,OVCAR-5 ovarian,28.7 µM
same,GI50,PC-3 prostate,5.74 µM
same,TGI,PC-3 prostate,31.1 µM
same,GI50,NCI-H522 lung,10.1 µM
same,TGI,NCI-H522 lung,27.8 µM
same,GI50,CAKI-1 renal,8.23 µM
same,TGI,CAKI-1 renal,26.3 µM
same,GI50,EKVX NSCLC,3.07 µM
same,TGI,EKVX NSCLC,12.5 µM
same,GI50,A498 renal,11.1 µM
same,TGI,A498 renal,23.4 µM
same,GI50,A549 NSCLC,3.77 µM
same,TGI,A549 NSCLC,17.1 µM
same,GI50,OVCAR-8 ovarian,4.66 µM
same,TGI,OVCAR-8 ovarian,17.4 µM
same,GI50,UACC-62 melanoma,5.48 µM
same,TGI,UACC-62 melanoma,19 µM
same,GI50,T-47D breast,4.57 µM
same,TGI,T-47D breast,> 100 µM
same,GI50,SK-OV-3 ovarian,16.1 µM
same,TGI,SK-OV-3 ovarian,34.5 µM
same,GI50,SN12C renal,7.81 µM
same,TGI,SN12C renal,20.4 µM
same,GI50,MDA-MB-468 breast,10.1 µM
same,TGI,MDA-MB-468 breast,34.3 µM
same,GI50,SR leukemia,3.03 µM
same,TGI,SR leukemia,20.8 µM
same,GI50,NCI-H23 lung,11.8 µM
same,TGI,NCI-H23 lung,27.4 µM
same,GI50,CCRF-CEM leukemia,3.73 µM
same,TGI,CCRF-CEM leukemia,36.8 µM
same,GI50,HCT-116 colon,4.45 µM
same,TGI,HCT-116 colon,17.3 µM
same,GI50,HOP-62 NSCLC,5.28 µM
same,TGI,HOP-62 NSCLC,20.8 µM
same,GI50,MCF7 breast,3.43 µM
same,TGI,MCF7 breast,21.6 µM
same,GI50,HL-60(TB) leukemia,2.83 µM
same,TGI,HL-60(TB) leukemia,14.1 µM
same,GI50,HT29 colon,5.75 µM
same,TGI,HT29 colon,21.4 µM
same,GI50,ACHN renal,6.12 µM
same,TGI,ACHN renal,60.1 µM
same,GI50,K-562 leukemia,3.48 µM
same,TGI,K-562 leukemia,76.9 µM
same,GI50,SW-620 colon,7.65 µM
same,TGI,SW-620 colon,25.1 µM
same,GI50,786-0 renal,12.9 µM
same,TGI,786-0 renal,27.6 µM
same,GI50,SK-MEL-28 melanoma,4.3 µM
same,TGI,SK-MEL-28 melanoma,17.8 µM
same,GI50,DU-145 prostate,12.4 µM
same,TGI,DU-145 prostate,38.2 µM
same,GI50,MDA-MB-231 breast,12.2 µM
same,TGI,MDA-MB-231 breast,27.5 µM
same,GI50,KM12 colon,3.45 µM
same,TGI,KM12 colon,13 µM
same,GI50,LOX IMVI melanoma,7.3 µM
same,TGI,LOX IMVI melanoma,20.3 µM
same,GI50,HCT-15 colon,3.36 µM
same,TGI,HCT-15 colon,12.6 µM
same,GI50,OVCAR-4 ovarian,6.23 µM
same,TGI,OVCAR-4 ovarian,> 100 µM
same,GI50,SF-268 CNS,7.21 µM
same,TGI,SF-268 CNS,26 µM
same,GI50,SK-MEL-2 melanoma,4.37 µM
same,TGI,SK-MEL-2 melanoma,18.3 µM
same,GI50,U251 CNS,4.64 µM
same,TGI,U251 CNS,17.5 µM
same,GI50,UO-31 renal,6.5 µM
same,TGI,UO-31 renal,21.1 µM
